Test results from paper PMC3273674 (Biochimica et Biophysica Acta, 2011).
Where no end group is shown, it is not given here.

System: dsDNA ([…])
Assay: DNA binding by fluorescence intercalator displacement
Conditions: C50 normalized compared to BF2

## CC(C)C[C@H](NC(=O)CNC(=O)[C@H](C)NC(=O)[C@H](CCCNC(=N)N)NC(=O)[C@H](CO)NC(=O)[C@H](CO)NC(=O)[C@H](CCCNC(=N)N)NC(=O)[C@@H](N)[C@@H](C)O)C(=O)N[C@@H](CCC(N)=O)C(=O)N[C@@H](Cc1c[nH]c2ccccc12)C(=O)N1CCC[C@H]1C(=O)N[C@H](C(=O)NCC(=O)N[C@@H](CCCNC(=N)N)C(=O)N[C@H](C(=O)N[C@@H](Cc1c[nH]cn1)C(=O)N[C@@H](CCCNC(=N)N)C(=O)N[C@@H](CC(C)C)C(=O)N[C@@H](CC(C)C)C(=O)N[C@@H](CCCNC(=N)N)C(=O)N[C@@H](CCCCN)C(=O)O)C(C)C)C(C)C [BF2]
  Relative C50: 1

## KVLRDNIQGWTKPAIRRLARRG [DesHDAP3]
  Relative C50: 1.09
